Measurements published in BindingDB's records for doi:10.1021/jm061268p (University of Arizona, 2007).

The compounds below were run against T1, Cholecystokinin receptor type A (Homo sapiens, UniProt P32238) (assay: Displacement of [125I]CCK8-SO3 from human CCK1 receptor expressed in HEK293 cells).
T1 sequence (P32238 whole entry): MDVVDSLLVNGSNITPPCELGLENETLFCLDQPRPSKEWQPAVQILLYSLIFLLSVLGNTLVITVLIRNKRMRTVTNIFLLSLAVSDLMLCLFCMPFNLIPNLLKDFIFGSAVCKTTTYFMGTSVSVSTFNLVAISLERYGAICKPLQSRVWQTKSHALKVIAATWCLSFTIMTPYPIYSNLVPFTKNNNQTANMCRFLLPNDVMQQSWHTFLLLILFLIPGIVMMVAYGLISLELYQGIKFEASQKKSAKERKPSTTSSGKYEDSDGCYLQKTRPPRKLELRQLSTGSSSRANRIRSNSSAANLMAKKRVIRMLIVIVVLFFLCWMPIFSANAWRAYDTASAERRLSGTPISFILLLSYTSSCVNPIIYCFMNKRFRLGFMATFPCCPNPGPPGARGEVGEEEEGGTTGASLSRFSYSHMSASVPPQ

Row | SMILES | IC50 [nM]
1 | CCCC[C@@H](NC(=O)[C@@H](CC(=O)O)NC(=O)[C@H](N)Cc1ccccc1)C(=O)N[C@@H](Cc1c[nH]c2ccccc12)C(=O)NNC(=O)[C@H](Cc1ccccc1)NC(=O)CNC(=O)[C@@H](C)NC(=O)[C@@H](N)Cc1ccc(O)cc1 [H-Tyr-D-Ala-Gly-Phe-NH-NH-Trp-D-Nle-D-Asp-D-Phe-H] | 5.72
2 | CCCC[C@@H](NC(=O)[C@H](Cc1c[nH]c2ccccc12)NC(=O)OC(C)(C)C)C(=O)N[C@H](CC(=O)O)C(=O)N[C@H](Cc1ccccc1)C(=O)NNC(=O)[C@H](Cc1ccccc1)NC(=O)CNC(=O)[C@@H](C)NC(=O)[C@@H](N)Cc1ccc(O)cc1 [H-Tyr-D-Ala-Gly-Phe-NH-NH-D-Phe-D-Asp-D-Nle-Trp-Boc] | 5.05
3 | CCCC[C@H](NC(=O)[C@H](CC(=O)O)NC(=O)[C@@H](N)Cc1ccccc1)C(=O)N[C@H](Cc1c[nH]c2ccccc12)C(=O)NNC(=O)[C@H](Cc1ccccc1)NC(=O)CNC(=O)[C@@H](C)NC(=O)[C@@H](N)Cc1ccc(O)cc1 [H-Tyr-D-Ala-Gly-Phe-NH-NH-D-Trp-Nle-Asp-Phe-H] | 5.15
